Test results as given in PubChem BioAssay (NCI).
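A five-concentration, 48-hour dose response in 96-well plates underlies each endpoint, interpolated linearly between surrounding concentrations. Definition used: TGI = concentration required for complete inhibition of growth.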

Columns and labels:
Assay in all cases: DTP human tumour cell line panel, 48 h
786-0 renal = test system: 786-0 renal
A498 renal = test system: A498 renal
A549 NSCLC = test system: A549 NSCLC
ACHN renal = test system: ACHN renal
BT-549 breast = test system: BT-549 breast
CAKI-1 renal = test system: CAKI-1 renal
CCRF-CEM leukemia = test system: CCRF-CEM leukemia
COLO 205 colon = test system: COLO 205 colon
DU-145 prostate = test system: DU-145 prostate
EKVX NSCLC = test system: EKVX NSCLC
HCC-2998 colon = test system: HCC-2998 colon
HCT-116 colon = test system: HCT-116 colon
HCT-15 colon = test system: HCT-15 colon
HL-60(TB) leukemia = test system: HL-60(TB) leukemia
HOP-62 NSCLC = test system: HOP-62 NSCLC
HS 578T breast = test system: HS 578T breast
HT29 colon = test system: HT29 colon
K-562 leukemia = test system: K-562 leukemia
KM12 colon = test system: KM12 colon
M14 melanoma = test system: M14 melanoma
MALME-3M melanoma = test system: MALME-3M melanoma
MCF7 breast = test system: MCF7 breast
MDA-MB-231 breast = test system: MDA-MB-231 breast
MDA-MB-435 = test system: MDA-MB-435
MDA-N = test system: MDA-N
MOLT-4 leukemia = test system: MOLT-4 leukemia
NCI-H226 lung = test system: NCI-H226 lung
NCI-H23 lung = test system: NCI-H23 lung
NCI-H460 lung = test system: NCI-H460 lung
NCI/ADR-RES ovarian = test system: NCI/ADR-RES ovarian
OVCAR-3 ovarian = test system: OVCAR-3 ovarian
OVCAR-4 ovarian = test system: OVCAR-4 ovarian
OVCAR-5 ovarian = test system: OVCAR-5 ovarian
PC-3 prostate = test system: PC-3 prostate
RPMI-8226 leukemia = test system: RPMI-8226 leukemia
RXF 393 renal = test system: RXF 393 renal
SF-268 CNS = test system: SF-268 CNS
SF-295 CNS = test system: SF-295 CNS
SF-539 CNS = test system: SF-539 CNS
SK-MEL-2 melanoma = test system: SK-MEL-2 melanoma
SK-MEL-28 melanoma = test system: SK-MEL-28 melanoma
SK-MEL-5 melanoma = test system: SK-MEL-5 melanoma
SK-OV-3 ovarian = test system: SK-OV-3 ovarian
SN12C renal = test system: SN12C renal
SNB-19 CNS = test system: SNB-19 CNS
SNB-75 CNS = test system: SNB-75 CNS
SR leukemia = test system: SR leukemia
SW-620 colon = test system: SW-620 colon
T-47D breast = test system: T-47D breast
TK-10 renal = test system: TK-10 renal
U251 CNS = test system: U251 CNS
UACC-257 melanoma = test system: UACC-257 melanoma
UACC-62 melanoma = test system: UACC-62 melanoma
UO-31 renal = test system: UO-31 renal
HOP-92 NSCLC = test system: HOP-92 NSCLC
IGROV1 ovarian = test system: IGROV1 ovarian
LOX IMVI melanoma = test system: LOX IMVI melanoma
OVCAR-8 ovarian = test system: OVCAR-8 ovarian
NCI-H522 lung = test system: NCI-H522 lung

Measured: TGI

N=c1oc2c(Cl)cc(Cl)cc2cc1C(=O)Nc1ccccn1
64.4 µM: ACHN renal
48.4 µM: HS 578T breast
61.4 µM: UACC-62 melanoma
46.1 µM: SNB-75 CNS
57.5 µM: OVCAR-3 ovarian
47.7 µM: RXF 393 renal
65.9 µM: SR leukemia
60.8 µM: RPMI-8226 leukemia
> 100 µM: 786-0 renal | A498 renal | A549 NSCLC | BT-549 breast | CAKI-1 renal | CCRF-CEM leukemia | COLO 205 colon | DU-145 prostate | EKVX NSCLC | HCC-2998 colon | HCT-116 colon | HCT-15 colon | HL-60(TB) leukemia | HOP-62 NSCLC | HT29 colon | K-562 leukemia | KM12 colon | M14 melanoma | MALME-3M melanoma | MCF7 breast | MDA-MB-231 breast | MDA-MB-435 | MDA-N | MOLT-4 leukemia | NCI-H226 lung | NCI-H23 lung | NCI-H460 lung | NCI/ADR-RES ovarian | OVCAR-4 ovarian | OVCAR-5 ovarian | PC-3 prostate | SF-268 CNS | SF-295 CNS | SF-539 CNS | SK-MEL-2 melanoma | SK-MEL-28 melanoma | SK-MEL-5 melanoma | SK-OV-3 ovarian | SN12C renal | SNB-19 CNS | SW-620 colon | T-47D breast | TK-10 renal | U251 CNS | UACC-257 melanoma | UO-31 renal

Cc1n[nH]c(=O)n1N1C(=O)c2ccccc2C1=O
> 100 µM: 786-0 renal | A498 renal | A549 NSCLC | ACHN renal | BT-549 breast | CAKI-1 renal | CCRF-CEM leukemia | COLO 205 colon | DU-145 prostate | EKVX NSCLC | HCC-2998 colon | HCT-116 colon | HCT-15 colon | HOP-62 NSCLC | HOP-92 NSCLC | HS 578T breast | HT29 colon | IGROV1 ovarian | K-562 leukemia | KM12 colon | LOX IMVI melanoma | M14 melanoma | MALME-3M melanoma | MCF7 breast | MDA-MB-231 breast | MDA-MB-435 | MDA-N | MOLT-4 leukemia | NCI-H226 lung | NCI-H23 lung | NCI-H460 lung | NCI/ADR-RES ovarian | OVCAR-3 ovarian | OVCAR-4 ovarian | OVCAR-5 ovarian | OVCAR-8 ovarian | PC-3 prostate | SF-295 CNS | SF-539 CNS | SK-MEL-2 melanoma | SK-MEL-28 melanoma | SK-MEL-5 melanoma | SN12C renal | SNB-19 CNS | SNB-75 CNS | SR leukemia | SW-620 colon | T-47D breast | TK-10 renal | U251 CNS | UACC-257 melanoma | UACC-62 melanoma | UO-31 renal

O=C(N/C(=C\c1ccccc1)C1Nc2ccccc2C(=O)O1)c1ccccc1 (configuration not stated)
63 µM: RXF 393 renal
84.6 µM: SN12C renal
51.9 µM: K-562 leukemia
62.2 µM: BT-549 breast
51.2 µM: U251 CNS
45.6 µM: MALME-3M melanoma
46.5 µM: CCRF-CEM leukemia
99.7 µM: HS 578T breast
36.8 µM: HCT-116 colon
45.1 µM: MOLT-4 leukemia
52.1 µM: M14 melanoma
62 µM: SK-MEL-2 melanoma
43.7 µM: SF-539 CNS
70.9 µM: NCI/ADR-RES ovarian
59 µM: 786-0 renal
61.6 µM: HOP-62 NSCLC
63.2 µM: RPMI-8226 leukemia
51.1 µM: OVCAR-8 ovarian
33.5 µM: NCI-H522 lung
96.7 µM: OVCAR-3 ovarian
80.9 µM: COLO 205 colon
38.6 µM: HCC-2998 colon
31.2 µM: KM12 colon
44.2 µM: UO-31 renal
36.1 µM: HL-60(TB) leukemia | LOX IMVI melanoma
> 100 µM: A498 renal | A549 NSCLC | ACHN renal | CAKI-1 renal | DU-145 prostate | EKVX NSCLC | HCT-15 colon | HOP-92 NSCLC | HT29 colon | IGROV1 ovarian | MCF7 breast | MDA-MB-231 breast | MDA-MB-435 | NCI-H226 lung | NCI-H23 lung | OVCAR-4 ovarian | OVCAR-5 ovarian | PC-3 prostate | SF-268 CNS | SF-295 CNS | SK-OV-3 ovarian | SNB-19 CNS | SNB-75 CNS | T-47D breast | TK-10 renal | UACC-62 melanoma
34.7 µM: SK-MEL-5 melanoma
56.6 µM: MDA-N
53.2 µM: SK-MEL-28 melanoma
59.6 µM: SW-620 colon
35.5 µM: NCI-H460 lung
58.4 µM: UACC-257 melanoma

CCN(CC)C1=Nc2ccccc2-n2c(C)cnc2C1
> 100 µM: 786-0 renal | A498 renal | A549 NSCLC | ACHN renal | BT-549 breast | CAKI-1 renal | CCRF-CEM leukemia | COLO 205 colon | DU-145 prostate | EKVX NSCLC | HCC-2998 colon | HCT-116 colon | HCT-15 colon | HL-60(TB) leukemia | HOP-92 NSCLC | HS 578T breast | HT29 colon | IGROV1 ovarian | K-562 leukemia | KM12 colon | LOX IMVI melanoma | M14 melanoma | MALME-3M melanoma | MCF7 breast | MDA-MB-231 breast | MDA-MB-435 | MDA-N | MOLT-4 leukemia | NCI-H226 lung | NCI-H23 lung | NCI-H460 lung | NCI-H522 lung | NCI/ADR-RES ovarian | OVCAR-3 ovarian | OVCAR-4 ovarian | OVCAR-5 ovarian | OVCAR-8 ovarian | PC-3 prostate | RPMI-8226 leukemia | RXF 393 renal | SF-268 CNS | SF-295 CNS | SF-539 CNS | SK-MEL-2 melanoma | SK-MEL-28 melanoma | SK-MEL-5 melanoma | SK-OV-3 ovarian | SN12C renal | SNB-19 CNS | SNB-75 CNS | SW-620 colon | T-47D breast | TK-10 renal | U251 CNS | UACC-257 melanoma | UACC-62 melanoma | UO-31 renal
